According to patent US10232021B2, “Calcitonin mimetics for treating diseases and disorders” (KEYBIOSCIENCE AG, priority 2013, dated 2019):
Bridges are numbered along the chain shown (N, C = ends).

Legend:
[1] = Eight-week treatment of obese rats: food intake and bodyweight; format: in vivo; conditions: 2.5 μg/kg/day subcutaneous
Method: To further investigate the potency of KBP-089 against KBP-042 obese rats were dosed with 2.5 μg/kg/day given as subcutaneous injection of either KBP-089 or KBP-042 and then two control groups, a vehicle and a calorie restriction group, in which the food intake was matched to the food intake of the KBP-089 group to shed light on whether effects independent of food intake could be observed.
In FIGS. 11A-11B; the effect of the peptides on food intake (FIG. 11A) and bodyweight (FIG. […]) during the eight week treatment period is shown in the upper and lower panels respectively. […] Additionally, when comparing KBP-089 to the calorie restricted control group (pair-fed), which has received exactly the same amount of food as the KBP-089 group over the study period, it is clear that the weight reduction is not only mediated by a restriction of food intake, but also by other effects.

[2] = Acute single-dose test on food intake, bodyweight and post-prandial glucose in high fat diet obese rats; format: in vivo, Male Sprague-Dawley rats
Method: To ensure the in vivo activity of this class of peptides, an acute test of the ability of KBP-056 to reduce food intake, bodyweight and post-prandial glucose compared to UGP302/KBP-042 was conducted. Male Sprague-Dawley rats were fed high fat diet for 8 weeks to induce obesity, and were then exposed to a single subcutaneous dose of 5 μg/kg KBP-056, UGP302/KBP-042 or vehicle (saline) (5 rats per group), and the effect on food intake, bodyweight and blood glucose was assessed. Blood was collected from the tail vein after 18 hours of dosing. Whole blood glucose levels were determined with an ACCU-CHEK® Avia blood glucose meter (Roche Diagnostics, Rotkreuz, Switzerland).

[3] = Bone resorption (CTX-I) and cartilage degradation (CTX-II) in rats on HFD; format: in vivo; conditions: male rats on HFD
Excerpt: This confirmed that the KBPs maintain their beneficial effects on bone and cartilage despite the amino-acid changes.

[4] = molecular target: T1, Calcitonin Receptor (CTR) (Homo sapiens, UniProt P30988); experiment: PathHunter β-arrestin assay on the calcitonin receptor, incl. prolonged activation; format: cell-based; conditions: U20S-CALCR cells; 4, 8, 24, 48, 72 h; 0.001-100 nM
T1 construct: host or cells: U2OS
T1 sequence (P30988 25-474): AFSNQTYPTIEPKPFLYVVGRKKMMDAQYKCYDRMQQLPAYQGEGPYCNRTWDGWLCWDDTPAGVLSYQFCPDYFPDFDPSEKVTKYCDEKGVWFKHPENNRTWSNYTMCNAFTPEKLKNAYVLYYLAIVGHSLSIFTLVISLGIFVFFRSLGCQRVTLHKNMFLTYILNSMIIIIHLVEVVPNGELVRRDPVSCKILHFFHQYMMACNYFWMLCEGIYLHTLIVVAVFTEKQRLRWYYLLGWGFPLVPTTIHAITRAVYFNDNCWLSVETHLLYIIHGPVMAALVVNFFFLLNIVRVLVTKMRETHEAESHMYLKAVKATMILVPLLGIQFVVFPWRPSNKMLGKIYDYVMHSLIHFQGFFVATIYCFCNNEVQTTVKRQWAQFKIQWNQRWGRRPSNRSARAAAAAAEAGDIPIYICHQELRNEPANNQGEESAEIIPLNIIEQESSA
Method: The following cell lines expressing the calcitonin, amylin and CGRP receptors were purchased and cultured according to the manufacturer's instructions. • 1. Calcitonin Receptor (CTR): U20S-CALCR from DiscoveRx (Cat. No.: 93-0566C3). • 2. Amylin Receptor (AMY-R): CHO-K1 CALCR+RAMP3 from DiscoveRx (Cat. No.: 93-0268C2). • 3. CGRP Receptor (CGRP-R): CHO-K1 CALCRL+RAMP1 from DiscoveRx (Cat. No.: 93-0269C2).
In independent bioassays, CTR, AMY-R and CGRP-R cells were treated with for the indicated timepoints with increasing doses of sCT, UGP-302/KBP-042 or the KBPs identified in Table 3 (0, 0.001, 0.01, 0.1, 1, 10, and 100 nM). […]
In this system, the GPCR is fused in frame with the small enzyme fragment ProLink™ and co-expressed in cells stably expressing a fusion protein of β-Arrestin and the larger, N-terminal deletion mutant of β-gal (called enzyme acceptor or EA). […] This interaction leads to an increase in enzyme activity that can be measured using chemiluminescent PathHunter® Detection Reagents.
The assay was performed in white 384 well plates (Greiner Bio-One, 784080). […] To quantify the GPCR-mediated β-arrestin recruitment the Pathhunter™ Detection Kit (93-0001, DiscoverX) was used and assay performed accordingly to the manufacturer's instructions. […]

[5] = Three-week treatment of ZDF rats: fasting plasma glucose and HbA1c; format: in vivo, male ZDF (fa/fa) rats; conditions: 5 μg/kg/day subcutaneously once daily, 3 weeks
Method: To assess the effects of the peptides in relation to regulation of blood glucose levels, male ZDF rats, which are the gold standard model of Type 2 Diabetes were treated for 3 weeks with the 3 most promising KBPs (023, 056 and 088) and an active comparator (UGP302/KBP-042). Male ZDF (fa/fa) rats were obtained at the age of 7 weeks from Charles River Laboratories (Kisslegg, Deutschland). All animals were housed at the animal facility at Nordic Bioscience with a constant temperature (21-23° C.) and relative humidity (55-65%) on a 12 h light/dark cycle with free access to Purina 5008 rat chow (Brogaarden, Lynge, Denmark) and tap water. At the age of 8 weeks, the animals were randomized into five groups of 8 rats each based upon fasting blood glucose and body weight (Vehicle (saline), UGP302/KBP-042 5 μg/kg/day, KBP-023 5 μg/kg/day, KBP-056 5 μg/kg/day and KBP-088 5 μg/kg/day) and dosing was done subcutaneously once daily. The animals were treated for a total of 3 weeks to assess the effect of the peptides on fasting blood glucose. Blood glucose was monitored using the Accu-Check® Avia monitoring system (Roche Diagnostics, Rotkreuz, Switzerland) and HbA1c levels by the DCA Vantage™ Analyzer (Siemens Healthcare Diagnostics, Deerfield, Ill.).

[6] = Single-dose food intake in obese High-Fat-Diet rats; format: in vivo; conditions: single subcutaneous dose 1.25, 2.5, 5 μg/kg; obese rats fasted overnight
Method: Rats were fed a High-Fat-Diet for 14 weeks prior to the experiment to induce obesity.
Further similar studies were undertaken over different time periods and with different peptides and the results are seen in FIG. 10 and FIGS. 11A-11B. The ability of KBP089 to suppress food intake over 72 hours was compared to that of KBP042 as control and the results are seen in FIG. 10.

| Substance | bodyweight during eight week treatment [1] | food intake during eight week treatment [1] | RANK (48 h) ([2]; rank symbol + or 0 at 48 h, legend not given) | bone resorption (CTX-I) [3] | cartilage degradation (CTX-II) [3] | maximum inhibition of CTX-I and CTX-II [3] | activation of the CTR (β-arrestin) [4] | food intake ([2]; single subcutaneous dose 5 μg/kg, 18-hour period, obese HFD rats) | post-prandial glucose ([2]; single subcutaneous dose 5 μg/kg, blood after 18 hours, obese HFD rats) | bodyweight ([2]; single subcutaneous dose 5 μg/kg, obese HFD rats) | HbA1c [5] | fasting plasma glucose (FPG) [5] | food intake, 0-4 hours [6] | food intake, 4-24 hours [6] | food intake, 24-48 hours [6] |
| --- | --- | --- | --- | --- | --- | --- | --- | --- | --- | --- | --- | --- | --- | --- | --- |
| KBP-042: Peptide UGP302 of WO2013/067357, SEQ ID NO: 4; AcCSNLSTCVLGKLSQELHKLQTYPRTDVGANAP-NH2 (Ac-CSNLSTCVLGKLSQELHKLQTYPRTDVGANAP-NH2; ends and bridges not checked) [reference compound] | substantial weight loss | reduce food intake dramatically in the beginning | 0 | – | – | – | – | – | – | – | – | – | – | – | – |
| KBP-056: SEQ ID NO: 11; AcCASLSTCVLGKLSQDLHKLQTFPRTDVGANAP-NH2 as printed in Table 3, Cys1-Cys7 disulphide bridge | – | – | – | dose and time-dependently reduced | dose and time-dependently reduced | reached three hours after dosing and at doses exceeding 1 μg/kg/day | superior ability to activate and maintain activation of the CTR | strongly reduced food intake | prominent reduction in post-prandial glucose levels | significant weight loss | highly active | highly active | – | – | – |
| KBP-089: SEQ ID NO: 44; AcCSNLSTCMLGRLSQDLHRLQTYPKTDVGANAP-NH2, Cys1-Cys7 disulphide bridge (Ac-CSNLSTCMLGRLSQDLHRLQTYPKTDVGANAP-NH2; disulfide 1-7; SMILES CSCC[C@H](NC(=O)[C@@H]1CSSC[C@H](NC(C)=O)C(=O)N[C@@H](CO)C(=O)N[C@@H](CC(N)=O)C(=O)N[C@@H](CC(C)C)C(=O)N[C@@H](CO)C(=O)N[C@@H]([C@@H](C)O)C(=O)N1)C(=O)N[C@@H](CC(C)C)C(=O)NCC(=O)N[C@@H](CCCNC(=N)N)C(=O)N[C@@H](CC(C)C)C(=O)N[C@@H](CO)C(=O)N[C@@H](CCC(N)=O)C(=O)N[C@@H](CC(=O)O)C(=O)N[C@@H](CC(C)C)C(=O)N[C@@H](Cc1c[nH]cn1)C(=O)N[C@@H](CCCNC(=N)N)C(=O)N[C@@H](CC(C)C)C(=O)N[C@@H](CCC(N)=O)C(=O)N[C@H](C(=O)N[C@@H](Cc1ccc(O)cc1)C(=O)N1CCC[C@H]1C(=O)N[C@@H](CCCCN)C(=O)N[C@H](C(=O)N[C@@H](CC(=O)O)C(=O)N[C@H](C(=O)NCC(=O)N[C@@H](C)C(=O)N[C@@H](CC(N)=O)C(=O)N[C@@H](C)C(=O)N1CCC[C@H]1C(N)=O)C(C)C)[C@@H](C)O)[C@@H](C)O) | greater than that introduced by KBP-042 | reduce food intake dramatically in the beginning | – | – | – | – | – | – | – | – | – | – | led to a reduction in food intake | the effect was maintained to 24 hours | led to a reduction in food intake |
